From paper PMC7913460, “Targeting hydroxycinnamoyl CoA: shikimate hydroxycinnamoyl transferase for lignin modification in Brachypodium distachyon” (Biotechnology for Biofuels, 2021) come the findings set out here.

Holding throughout (assay type): biochemical, Medicago truncatula
The subject of experiment [1] is T1, MtHCT2.
T1 construct: gene HCT2
Put plainly: HPLC product assay, forward HCT reaction. The conditions noted are these: 500 µM shikimic acid, 100 mM sodium phosphate pH 7.5, 500 µM DTT; kcat apparent. The source says: HPLC product assay, forward HCT reaction on MtHCT2

Experiment [2] concerns T2, MtHCT1.
T2 construct: gene HCT1
Briefly: HPLC product assay, forward HCT reaction. The conditions noted are these: 500 µM shikimic acid, 100 mM sodium phosphate pH 7.5, 500 µM DTT; kcat apparent. From the text: HPLC product assay, forward HCT reaction on MtHCT1

For experiment [3], the system named is T2, MtHCT1. Briefly: HPLC product assay, reverse HCT reaction. The conditions noted are these: 500 µM CoA, 100 mM sodium phosphate pH 7.5, 500 µM DTT; kcat apparent; substrate tested 20 to 400 µM. The source says: HPLC product assay, reverse HCT reaction on MtHCT1
For experiment [4], the system named is T1, MtHCT2. Briefly: HPLC product assay, reverse HCT reaction. The note with it: 500 µM CoA, 100 mM sodium phosphate pH 7.5, 500 µM DTT; kcat apparent; substrate tested 20 to 400 µM. From the text: HPLC product assay, reverse HCT reaction on MtHCT2

As to `CC(C)(COP(=O)(O)OP(=O)(O)OC[C@H]1O[C@@H](n2cnc3c(N)ncnc32)[C@H](O)[C@@H]1OP(=O)(O)O)[C@@H](O)C(=O)NCCC(=O)NCCSC(=O)/C=C/c1ccc(O)cc1` [4-coumaroyl CoA], the Km (in general, the substrate concentration at which the rate is half of its maximum) with MtHCT2 [1] is 44.3 µM; with MtHCT1 [2], 40.6 µM.
For the compound `O=C(/C=C/c1ccc(O)c(O)c1)O[C@@H]1CC(C(=O)O)=C[C@@H](O)[C@H]1O` [caffeoyl shikimate], the Km with MtHCT1 [3] turned out to be 148 µM; in the experiment with MtHCT2 [4], 139 µM.
